Values joined by “and” are separate entries in the source; they are usually repeats but may differ in a detail not shown here. Equal entries are not always repeated. Where two headings read alike, the source gives them in different places.
Assays:
in vivo [1] = conditions: CD2F1, mouse, iv, 20 mg/kg
[2] = in vivo
cell cycle = conditions: cited from earlier work
[3] = tested on: A498 human renal cell cancer xenografts; conditions: in vivo; cited from earlier work
[4] = tested on: human 786-0 renal cell tumors; conditions: mouse, in vivo; cited from earlier work
renal carcinoma cells = conditions: cited from earlier work
[5] = mouse, in vivo
[6] = tested on: human ACHN renal cell tumors; conditions: mouse, in vivo; cited from earlier work
mice [7] = conditions: mouse, in vivo
in vivo [8] = conditions: CD2F1, mouse, iv, 20 mg/kg; remark: listed apart in the source
[9] = tested on: human RXF-393 renal carcinoma cell xenografts; conditions: mouse, in vivo; cited from earlier work
RBC ALDH = conditions: mouse, in vivo, ip, 300 mg/kg; cited from earlier work
mice [10] = conditions: mouse, in vivo; remark: listed apart in the source
ALDH1B1 = conditions: cited from earlier work
liver ALDH = conditions: mouse, in vivo, ip, 300 mg/kg; cited from earlier work

Cc1cc(N(CCO)CCO)ccc1C(=O)O [BA-(OH)2, 4-[bis[2-hydroxy-ethyl]amino]-2-methyl-benzoic acid]
Tmax (in vivo [1]; plasma): 10 min
half-life (in vivo [1]; plasma, Half-life, BEN 20 mg/kg iv alone): 29 min
Cl/F ([2]; mouse): 1.90 mL/min/kg and 1.20 mL/min/kg
Tmax ([2]; mouse): 10 min
Vd/F ([2]; mouse): 83 L/kg and 60 L/kg

Cc1cc(N(CCOS(C)(=O)=O)CCOS(C)(=O)=O)ccc1C=O [BEN, 4-[bis[2-[(methylsulfonyl)-oxy]ethyl]amino]-2-methyl-benzaldehyde]
Cell cycle effect (cell cycle): S and G2/M cell cycle arrest
Tmax (in vivo [1]; in vivo): 5 min
Effect on xenograft growth [3]: slowed the growth
Anti-tumor activity [4]: significant activity
Increase of BEN plasma exposure by disulfiram pretreatment ([2]; CD2F1, mouse): 368 fold
Time after administration at which analyte became undetectable in plasma ([2]; CD2F1, mouse): 15 min
Cl/F ([2]; CD2F1, mouse, iv, 20 mg/kg): 0.18 mL/min/kg
Tmax ([2]; CD2F1, mouse, iv, 20 mg/kg): 5 min
Vd/F ([2]; CD2F1, mouse, iv, 20 mg/kg): 120 L/kg
Activity in NCI 60 cell line screen (renal carcinoma cells): specific activity
Body weight loss [5]: approximately 12%
Anti-tumor activity [6]: significant activity
Day after dosing by which blood values returned to normal (mice [7]): ≤ 14 days
Effect of disulfiram pretreatment on percentage lymphocytes nadir (mice [7]): appeared to deepen
Hematocrits, white blood cells and percent lymphocytes following treatment (mice [7]): decreased
CL renal (in vivo [8]): 0.4 mL/min
Cure rate [9]: > 70%

CS(=O)(=O)OCCCCOS(C)(=O)=O [busulfan, reference compound]
Anti-tumor activity [9]: no activity

CCN(CC)C(=S)SSC(=S)N(CC)CC [disulfiram, Tetraethylthiuram disulfide]
Reduction of ALDH activity in RBC compared to controls (RBC ALDH): 81%
Hepatic pathology (mice [10]): mild hepatic lesions
Sensitivity of ALDH1B1 to inhibition (ALDH1B1): insensitive to inhibition
Body weight loss [5]: approximately 12%
Reduction of ALDH activity in liver compared to controls (liver ALDH): 27%
